The source of these data is patent US4727076A, “Tetrahydroquinolinylalkyl amino pyridones and ring homologues thereof, useful as histamine-H1 -receptor antagonists” (Smith Kline & French Laboratories Ltd., priority 1986, dated 1988).

The test system of the assay is histamine H1-receptor. Kind of assay: inhibition of histamine induced bronchoconstriction in vivo. Details: species or system guinea pig. Conditions: anaesthetised guinea pigs, intravenous injection, histamine dose-response curve 5 minutes later. As for the experimental part:
Guinea pigs of either sex are anaesthetised by intraperitoneal injection of sodium pentobarbitone, 90 mg/kg. The trachea is cannulated. The animal is respired artificially with a fixed volume of air just adequate to inflate the lungs. The pressure needed to inflate the lungs is monitored from the respiratory system using a low pressure transducer. Intravenous injection of histamine causes dose-dependent increases in the pressure to inflate the lungs reflecting the bronchoconstrictor action of histamine. Responses to histamine can be antagonised using histamine H1 -receptor antagonists.
Dose-response curves to histamine are established at 20, 40, 80, 160 and 320 nmols/kg. Antagonists are then administered by intravenous injection and 5 minutes later a new histamine dose-response curve is established increasing the doses of histamine as necessary. The effect of the antagonist can be quantified by the displacement, to the right, of the histamine dose-response curve, expressed as a dose-ratio. A series of doses of antagonists may be given to each animal allowing calculation of dose-ratios for each dose of antagonist. For the compounds of Examples 1, 2 and 4, the doses (μmol/kg) required to give a dose ratio of 11 ((DR-1)=10) are 0.022, 0.06 and 0.0048 respectively.
As to `O=c1nc(NCCCC2CCCc3cccnc32)[nH]cc1Cc1cc[n+]([O-])cc1` (stereo not drawn) [Example 1, 2-[3-(5,6,7,8-Tetrahydroquinol-8-yl)propylamino]-5-[1-oxopyrid-4-ylmethyl]-4(1H)-pyrimidone], the “dose required to give a dose ratio of 11 ((DR-1)=10)” value was 0.022 µmol/kg. For `Cc1ccc(Cc2c[nH]c(NCCCC3CCCc4cccnc43)nc2=O)cn1` (stereo not drawn) [Example 2, 2-[3-(5,6,7,8-Tetrahydroquinol-8-yl)propylamino]-5-(6-methylpyrid-3-ylmethyl)-4(1H)-pyrimidone] the value was 0.06 µmol/kg; for `O=c1nc(NCCCC2CCCc3cccnc32)[nH]cc1Cc1ccc(CO)nc1` (stereo not drawn) [Example 4, 2-[3-(5,6,7,8-Tetrahydroquinol-8-yl)propylamino]-5-(6-hydroxymethylpyrid-3-ylmethyl)-4(1H)-pyrimidone], 0.0048 µmol/kg.
